Where a name gives a salt, the structure may show the parent alone.
What was measured:
perfused rabbit ear = assay: Blood-flow change in perfused isolated rabbit ear, vaso-dilator activity (Ringer-Norfenefrin solution)
Procedure: (3) Blood-flow change in an isolated rabbit ear
The tests were carried out according to Krakow-Pissemski (Pflugers Archiv 151 (1913), page 583 and 156 (1914), page 426). In Table 5a the estimated values of the vaso-constrictor activity in Ringer solutions of varying concentrations are given and in Table 5b values for vasodilatory activity in Ringer-Norfenefrin solutions of varying concentrations are given. As a comparison, the values obtained with the known preparation aescin sodium are given.

[1] = Toxicity in the mouse (Litchfield and Wilcoxon); format: in vivo; settings: mouse, in vivo
Procedure: (§1) (6) Toxicity in the mouse
(§2) Toxicity was determined according to Litchfield and Wilcoxon (J. Pharmacol. exp. Ther. 97 (1949), page 399) in the mouse. In comparison, the values with the known substance aescin sodium salt were determined. Comparative tests with 0.1% solution, of venous and optical compatibility on the rabbit yielded similar results.

[2] = test system: writhing movements in the mouse; assay: Writhing test (Winter); format: in vivo
Text: The analgesic activity of the compounds according to the invention were studied by the method of Winter et al (Proc. Soc. exp. Biol. Med, 111 (1962), page 544), in which the suppression of writhing movements in the mouse was observed.

[3] = test system: carrageenin oedema in the rat paw; assay: Suppression of carrageenin oedema in the rat paw (Siegmund); format: in vivo; settings: 3 h p.a.
Procedure: (7) Suppression of carrageenin oedema in the rat paw
The inflammation-reducing and anti-oedematous effects on carrageenin and serotonin oedemas in the rat paw were studied according to Siegmund et al (Proc. Soc. exp. Biol. Med. 95 (1957), page 729). The values are given as percentages, based on the values obtained in control tests using a dummy procedure. In this way, the antiphlogistic activity of the substances according to the invention was tested.

[4] = test system: permeability of the capillaries; assay: Histamine rash test (modified Halpern), capillary permeability; format: in vivo; settings: 30 minutes before histamine
Procedure: The test according to Halpern (Presse medicale 65 (1949), page 949) was used in modified form. The suppressive effect of the compounds according to the invention on the permeability of the capillaries was tested. The blue coloration induced by intravenous administration of trypan blue at two intracutaneous histamine injection points per animal, (trypan blue administered 2 minutes before the histamine), was estimated according to the following scale of values:
indications of blue coloration
clear blue coloration =4
stong blue coloration =6
The preceding evaluation was made from the combined effect at the two injection points.
The test substances were administered i.p. 30 minutes before the histamine injection.

isolated vein sections = assay: Isolated vein section (modified Furchgott), contraction in adrenalin; set-up: species or system rabbit; settings: in words
Procedure: (§3) (1) Isolated vein and aorta sections
(§4) The tests were carried out on isolated vein and aorta sections from rabbits in accordance with the modified method of Furchgott et al (J. Pharmacol, exp. Ther. 108 (1953), page 129). The contraction of the vein section in adrenalin and of the aorta section in noradrenalin, after administration of 10^-6 g/ml of the test compound was defined to have the base value of 100.

[5] = test system: isolated guinea-pig heart; assay: Relative coronary blood-flow change in isolated guinea-pig heart (Langendorff)
Procedure: (4) Relative coronary blood-flow change in an isolated guinea-pig heart.
The tests were carried out according to the method of Langendorff (Pflugers Archiv. 61 (1895), page 219).
In Table 5, the change in coronary blood flow after administration of various quantities of the test substance is compared with that after administration of the known compounds heptaminol and Aescin sodium salt.

mouse [6] = assay: Hot-plate test (Chen and Beckman); format: in vivo
Procedure: This test was performed on the mouse, according to Chen and Beckman (see Science 113 (1951), page 631). 50 mg/kg of the compound No. 2 (cf. formula sheet) which has been administered per os increase the reaction time of the animals by 70%.

isolated portal vein = assay: Isolated rat's portal vein (Berti), increase in tonus
Procedure: (2) Isolated rat's portal vein
The tests on the rat's portal vein, an organ with its own rhythm, were performed according to the method of Berti et al (Arch. int. Pharmacodyn. 184 (1970), page 328). In Table 4, the increase in tonus at various adrenalin concentrations is given in milligrams. As a comparison, the values for the known substance heptaminol (=6-amino-2-methylheptane-2-ol) are also given.

isolated aorta sections = assay: Isolated aorta section (modified Furchgott), contraction in noradrenalin; set-up: species or system rabbit; settings: in words
Procedure: as §3, §4

mouse [7] = assay: Toxicity in the mouse (Litchfield and Wilcoxon); format: in vivo
Procedure: as §1, §2

[8] = 100 μg (first figure where two are given)

| Compound | Relative change in blood flow, vaso-dilator activity (perfused rabbit ear; 3 × 10^-5 g/ml) | LD50 ([1]; ip) [mg/kg] | Histamine rash test, blue coloration score (0 = none, 2 = indications, 4 = clear, 6 = strong) ([4]; 3.0 mg/kg i.p.) | Relative change in blood flow, vaso-dilator activity (perfused rabbit ear; 10^-5 g/ml) | Relative change in blood flow, vaso-dilator activity (perfused rabbit ear; 10^-6 g/ml) | Relative change in blood flow, vaso-dilator activity (perfused rabbit ear; 10^-7 g/ml) | Suppression of writhing movements ([2]; 50 mg/kg p.o.) [%] | Histamine rash test, blue coloration score (0 = none, 2 = indications, 4 = clear, 6 = strong) ([4]; 1.0 mg/kg i.p.) | Suppression of carrageenin oedema in the paw (antiphlogistic activity) ([3]; 100 mg/kg p.o.) [%] | also measured |
| --- | --- | --- | --- | --- | --- | --- | --- | --- | --- | --- |
| CCCCCC(C)NCc1ccc(F)cc1 (centres unmarked) [compound 7] | +34 | 100 to 250 | – | – | – | – | – | – | – | Suppression of writhing movements ([2]; 40 mg/kg p.o.): 46%; Suppression of writhing movements ([2]; 63 mg/kg p.o.): 67%; Suppression of writhing movements ([2]; 100 mg/kg p.o.): 77%; Suppression of carrageenin oedema in the paw (antiphlogistic activity) ([3]; 25 mg/kg p.o.): 53%; Suppression of carrageenin oedema in the paw (antiphlogistic activity) ([3]; 63 mg/kg p.o.): 71% |
| CCCCC(C)NCc1c(C)cc(C)cc1C (centres unmarked) [compound 25] | – | 50 to 100 | 1.3 | +93 | +1 | +3 | 46 | – | – | Histamine rash test, blue coloration score (0 = none, 2 = indications, 4 = clear, 6 = strong) ([4]; 10.0 mg/kg i.p.): 1.4; Relative change in blood flow, vaso-dilator activity (perfused rabbit ear; 3 × 10^-6 g/ml): +39; Relative change in blood flow, vaso-dilator activity (perfused rabbit ear; 10^-4 g/ml): +147 |
| CCCCCCC(C)NCc1c(C)cc(C)cc1C (centres unmarked) [Serial No. 26] | – | 50 to 100 | 1.2 | +58 | +29 | +7 | 45 | 1.8 | 39 | Vasotonic activity compared with aescin sodium (vein, Table 2) (isolated vein sections): stronger vasotonic activity than the comparison substance aescin sodium; Relative change in coronary blood flow ([5]; 10 μg (first figure where two are given)): +28; Relative change in coronary blood flow ([5]; 30 μg (first figure where two are given)): +57 |
| Cc1c(N(C)C)c(=O)n(-c2ccccc2)n1C [aminophenazone, reference compound] | – | – | – | – | – | – | – | – | – | ED50 (mouse [6]; Mus musculus, comparison substance, read-out: Effective dose of 50% (ED 50), hot-plate test): 84 mg/kg |
| CCC(C)C(C)NCc1c(C)cc(C)cc1C (centres unmarked) [Serial No. 27] | +12 | 100 to 250 | 1.9 | – | +4 | – | – | 3.6 | – | LD50 ([1]; po): 2400 mg/kg; Increase in tonus, isolated rat's portal vein (isolated portal vein; 10^-4 g/ml): +250 milligrams; Increase in tonus, isolated rat's portal vein (isolated portal vein; 10^-5 g/ml): +19 milligrams; Increase in tonus, isolated rat's portal vein (isolated portal vein; 10^-6 g/ml): -9 milligrams; Vasotonic activity compared with aescin sodium (aorta, Table 3) (isolated aorta sections): stronger vasotonic activity than the comparison substance aescin sodium |
| CCCCCC(C)NCc1c(C)cc(C)cc1C (centres unmarked) [Serial No. 2, 2-(2,4,6-Trimethylbenzyl)-aminoheptane hydrochloride] | – | 114 | 1.7 | +73 | +31 | +3 | 53 | 2.6 | 46 | Histamine rash test, blue coloration score (0 = none, 2 = indications, 4 = clear, 6 = strong) ([4]; 0.1 mg/kg i.p.): 3.5; Histamine rash test, blue coloration score (0 = none, 2 = indications, 4 = clear, 6 = strong) ([4]; 0.3 mg/kg i.p.): 3.4; Histamine rash test, blue coloration score (0 = none, 2 = indications, 4 = clear, 6 = strong) ([4]; 10.0 mg/kg i.p.): 1.9; Relative change in blood flow, vaso-dilator activity (perfused rabbit ear; 10^-4 g/ml): +112; Increase in reaction time of the animals (mouse [6]; 50 mg/kg per os): 70%; LD50 ([1]; iv): 11.7 mg/kg; LD50 ([1]; po): 940 mg/kg; Suppression of writhing movements ([2]; 40 mg/kg p.o.): 32%; Suppression of writhing movements ([2]; 63 mg/kg p.o.): 51%; Suppression of writhing movements ([2]; 100 mg/kg p.o.): 80%; Increase in tonus, isolated rat's portal vein (isolated portal vein; 10^-4 g/ml): +185 milligrams; Increase in tonus, isolated rat's portal vein (isolated portal vein; 10^-5 g/ml): +106 milligrams; Relative change in coronary blood flow [5, 8]: +120; Suppression of carrageenin oedema in the paw (antiphlogistic activity) ([3]; 25 mg/kg p.o.): 53%; Suppression of carrageenin oedema in the paw (antiphlogistic activity) ([3]; 63 mg/kg p.o.): 52% |
| CCCCCC(C)NCc1c(C)cc(C)cc1C (single isomer, unassigned) [compound 4] | +31 | – | 1.7 | +104 | +40 | +4 | – | 3.1 | 14 | Toxicity in the mouse (mouse [7]; i.p.): 50 to 100 mg/kg; Toxicity in the mouse (mouse [7]; i.v.): 12,4 mg/kg; Relative change in coronary blood flow [5, 8]: +125 |

From patent publication US4312861A, “Pharmaceutical compositions containing N-alkyl-N-(nuclearly-substituted) benzylamines having vasotonia-regulating activity” (Hoechst Aktiengesellschaft, priority 1974, dated 1982)
